According to PubChem BioAssay (NCI):
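How tested: cells in 96-well plates exposed to compound for 48 hours at five concentrations. The concentration for full growth arrest is given as TGI.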

How the values were obtained:
Experiment in all cases: NCI anticancer screen, dose series, 48 h
[1] = tested on: LOX IMVI melanoma
[2] = tested on: UO-31 renal
[3] = tested on: A549 NSCLC
[4] = tested on: SN12C renal
[5] = tested on: KM20L2 colon
[6] = tested on: SW-620 colon
[7] = tested on: EKVX NSCLC
[8] = tested on: HOP-62 NSCLC
[9] = tested on: HCT-15 colon
[10] = tested on: COLO 205 colon
[11] = tested on: A498 renal
[12] = tested on: HT29 colon
[13] = tested on: SNB-75 CNS
[14] = tested on: LXFL 529 NSCLC
[15] = tested on: SK-MEL-2 melanoma
[16] = tested on: RXF-631 renal
[17] = tested on: DMS 114 small cell lung
[18] = tested on: SK-MEL-28 melanoma
[19] = tested on: HL-60(TB) leukemia
[20] = tested on: KM12 colon
[21] = tested on: SK-OV-3 ovarian
[22] = tested on: SNB-19 CNS
[23] = tested on: K-562 leukemia
[24] = tested on: M14 melanoma
[25] = tested on: CAKI-1 renal
[26] = tested on: CCRF-CEM leukemia
[27] = tested on: DLD-1 colon
[28] = tested on: OVCAR-5 ovarian
[29] = tested on: XF 498 CNS
[30] = tested on: HCC-2998 colon
[31] = tested on: RPMI-8226 leukemia
[32] = tested on: OVCAR-8 ovarian
[33] = tested on: SF-295 CNS
[34] = tested on: MOLT-4 leukemia
[35] = tested on: UACC-257 melanoma
[36] = tested on: UACC-62 melanoma
[37] = tested on: SF-268 CNS
[38] = tested on: MALME-3M melanoma
[39] = tested on: SNB-78 CNS
[40] = tested on: SF-539 CNS
[41] = tested on: NCI-H226 lung
[42] = tested on: HCT-116 colon
[43] = tested on: OVCAR-3 ovarian
[44] = tested on: NCI-H522 lung
[45] = tested on: M19-MEL melanoma
[46] = tested on: ACHN renal
[47] = tested on: SR leukemia
[48] = tested on: IGROV1 ovarian
[49] = tested on: HOP-92 NSCLC
[50] = tested on: TK-10 renal
[51] = tested on: DMS 273 small cell lung
[52] = tested on: U251 CNS
[53] = tested on: 786-0 renal
[54] = tested on: NCI-H23 lung

Measured: TGI

CCNC(=O)N(CC)CN(CC)C(=O)NCC
> 100 µM: [1] | [2] | [3] | [4] | [5] | [6] | [7] | [8] | [9] | [10] | [11] | [12] | [13] | [14] | [15] | [16] | [17] | [18] | [19] | [20] | [21] | [22] | [23] | [24] | [25] | [26] | [27] | [28] | [29] | [30] | [31] | [32] | [33] | [34] | [35] | [36] | [37] | [38] | [39] | [40] | [41] | [42] | [43] | [44] | [45] | [46]

COc1cccc2c1N[S@](=O)S2
> 100 µM: [1] | [47] | [48] | [2] | [3] | [49] | [4] | [5] | [6] | [7] | [9] | [50] | [12] | [13] | [14] | [15] | [16] | [51] | [18] | [19] | [20] | [21] | [22] | [23] | [24] | [25] | [26] | [27] | [29] | [31] | [52] | [33] | [34] | [35] | [36] | [37] | [38] | [53] | [39] | [40] | [41] | [42] | [43] | [44] | [54] | [45] | [46]
